From patent publication US8858988B2, “Compositions comprising extracts of Boswellia, tea tree, aloe and lavender oil and methods of treating wounds, burns and skin injuries therewith” (CuraPhyte Technologies Inc., priority 2009, dated 2014)
Marks after values point to notes of the source that are not given here.

System: mouse cutaneous injury model
Assay: Wound healing in mouse cutaneous injury model
Type: in vivo
Conditions: TOP
Experimental: Animal model: Groups of 8 ICR male mice weighing 22±2 g were used. Under ether anesthesia, the shoulder and back region of each animal was shaved. A sharp punch (ID 12 mm) was used to remove the skin including panniculus carnosus and adherent tissues. The wound area, traced onto clear plastic sheets on days 3, 5, 7, 9 and 11, were quantitated by use of an Image Analyzer (Life Science Resources VISTA, Version 30). Test compound and vehicle (20 μl, 1.5% carboxymethylcellulose in PBS) were applied topically immediately following injury and in single, two or three applications daily thereafter for a total of 10 consecutive days. The wound half-closure time (CT50) was determined and unpaired Student's t test was applied for comparison between treated and vehicle group at each measurement time point. Differences are considered statistical significance at P<0.05. CGS-21680 ((2-p-carboxyethyl)phenylamino-5′-N-carboxamidoadenosine) was used as a positive comparator. Test substance C-T-1001 (Ointment A: herbal active ingredients tea tree oil, boswellia resin, aloe vera gel and lavender oil) was evaluated for possible wound healing activity. The test substance was applied topically to the wound area once, twice, or three times daily for 10 consecutive days. Percent closure of the wound (%) was determined on days 3, 5, 7, 9 and 11 in order to generate the half closure time (CT50). One-way ANOVA followed by Dunnett's test was used to determine significant difference between the treated groups and vehicle control.

CCNC(=O)[C@H]1O[C@@H](n2cnc3c(N)nc(NCCc4ccc(CCC(=O)O)cc4)nc32)[C@H](O)[C@@H]1O [CGS-21680]
The Closure of Wound (%) Day 3 (10 μg/mouse × 10, Day 3, mean (X)): 42.4* %
The Closure of Wound (%) Day 5 (10 μg/mouse × 10, Day 5, mean (X)): 56.3* %
The Closure of Wound (%) Day 7 (10 μg/mouse × 10, Day 7, mean (X)): 66.8* %
The Closure of Wound (%) Day 9 (10 μg/mouse × 10, Day 9, mean (X)): 74.3* %
The Closure of Wound (%) Day 11 (10 μg/mouse × 10, Day 11, mean (X)): 81.7* %
CT50 (Days), wound half-closure time (10 μg/mouse × 10, mean (X)): 5.5* Days
